Experiments:
HepG2 cells [1] = test: In vitro transfection efficiency, luciferase expression, HepG2 cells; format: cell-based; conditions: for inhibition of transfection due to the presence of serum proteins (in words): presence vs absence of serum
Procedure: (§1) The plasmid used is described in Patent WO 97/10343. This construct pCOR_pXL2774 comprises the gene encoding luciferase under the human cytomegalovirus very early gene promoter [hCMV-IE].
(§2) The nucleic acid solutions are diluted to 20 μg/ml in physiological saline (0.15 M NaCl).
(§3) The products described in the invention are dissolved in water at a concentration varying from 40 to 160 μmol and mixed volume for volume with the DNA solution. The final saline concentration is 75 mmol.

HeLa cells [2] = test: Toxicity of cytofectant mixtures, protein concentrations in cell lysates, HeLa cells; format: cell-based; conditions: up to 160 μM of cationic lipid
Procedure: (§4) The cells are cultured under appropriate conditions in 24-well microplates (2 cm^2/well) and are transfected while they are in the exponential growth phase and at 50-70% confluence.
(§5) The cells are washed with twice 0.5 cm^3 of medium free of serum proteins and grown again either in serum-free medium (transfection in the absence of serum), or in complete medium (transfection in the presence of serum) 0.05 cm^3 of cytofectant mixture (0.5 μg DNA/well) are added to the cells (3 wells/condition DNA vector). When the cells are transfected in the absence of serum, the growth medium is supplemented 2 hours after transfection with the appropriate quantity of serum.
(§6) The toxicity of the cytofectant mixtures is estimated by a measurement of the protein concentrations in the cell lysates.

HeLa cells [3] = test: In vitro transfection efficiency, luciferase expression, HeLa cells; format: cell-based; conditions: for inhibition of transfection due to the presence of serum proteins (in words): presence vs absence of serum
Procedure: as §1, §2, §3

HepG2 cells [4] = test: Toxicity of cytofectant mixtures, protein concentrations in cell lysates, HepG2 cells; conditions: for toxicity (in words): up to 160 μM of cationic lipid
Procedure: as §4, §5, §6

[5] = Detergent action: solubilization of liposomes EPC/EPA (10:1) measured by turbidity; conditions: turbidity by spectrophotometer; compared with Triton X-100 (100% solubilization)
From the text: For that, an in vitro model is used which represents the biological membranes, namely liposomes EPC/EPA (egg phosphatidylcholine/egg phosphatidic acid, 10:1).
These liposomes are formed by dissolving the various constituents in chloroform, and then evaporating the said chloroform with the aid of a rotary evaporator. The lipid film obtained is redispersed in water, and then the liposomes are formed by sonication and heating.
The evaluation of the detergent action of the product added to the liposomes is made by measuring the turbidity with the aid of a spectrophotometer.

[6] = HepG2 cells, absence of serum proteins
[7] = HeLa cells, absence of serum proteins

NH2(CH2)3NH(CH2)4NH(CH2)3NHCH2COCyS-[S—S-Cholesterol]—NH(CH2)17CH3 [compound (V)]
gain in expression of the transgene, cholesterol instead of an alkyl chain (in words) (HepG2 cells [1]; HepG2 cells (FIG. 9)): very significant gain | inhibition of transfection due to the presence of serum proteins (in words) (HepG2 cells [1]; HepG2 cells): no inhibition could be observed | toxicity (in words) (HeLa cells [2]): no significant toxicity | gain in expression of the transgene, cholesterol instead of an alkyl chain (in words) (HeLa cells [3]; HeLa cells (FIG. 9)): very significant gain | inhibition of transfection due to the presence of serum proteins (in words) (HeLa cells [3]; HeLa cells): no inhibition could be observed | toxicity (in words) (HepG2 cells [4]): no significant toxicity

CCCCCCCCCCCCCCCCCCNC(=O)C(CSSCC(NC(=O)CNCCCNCCCCNCCCN)C(=O)NCCCCCCCCCCCCCCCCCC)NC(=O)CNCCCNCCCCNCCCN (stereo not shown) [compound (VI), [NH2(CH2)3NH (CH2)4NH (CH2)3NHCH2CO—CyNH (CH2)17CH3]2]
transgene expression in comparison with reference cationic lipid REF (HepG2 cells [1]; HepG2 cells, absence of serum (FIG. 3)): 4 times | survival (HepG2 cells [4]; transfection in the absence of serum proteins, cationic lipid dose 160 μM): 80%

NH2(CH2)3NH(CH2)4NH(CH2)3NHCH2COCys-[S—S—(CH2)4CH3]—N[(CH2)17CH3]2 [compound (I)]
transfection results compared with reference cationic lipid REF (in words) (HepG2 cells [1]; [6]): same order of magnitude | inhibition of transfection due to the presence of serum proteins (in words) (HepG2 cells [1]; HepG2 cells): no significant inhibition | toxicity (in words) (HeLa cells [2]): no significant toxicity | transfection results compared with reference cationic lipid REF (in words) (HeLa cells [3]; [7]): same order of magnitude | inhibition of transfection due to the presence of serum proteins (in words) (HeLa cells [3]; HeLa cells): no significant inhibition | toxicity (in words) (HepG2 cells [4]): no significant toxicity

NH2(CH2)3NH(CH2)4NH(CH2)3NHCH2COCys-[S—S—(CH2)11CH3]—N[(CH2)17CH3]2 [compound (IV)]
expression of the transgene compared with reference cationic lipid REF (HepG2 cells [1]; [6]): about 9 fold | inhibition of transfection due to the presence of serum proteins (in words) (HepG2 cells [1]; HepG2 cells): no significant inhibition | toxicity (in words) (HeLa cells [2]): no significant toxicity | expression of the transgene compared with reference cationic lipid REF (HeLa cells [3]; [7]): about 2 fold | inhibition of transfection due to the presence of serum proteins (in words) (HeLa cells [3]; HeLa cells): no significant inhibition | toxicity (in words) (HepG2 cells [4]): no significant toxicity

NH2 (CH2)3NH(CH2)4NH(CH)3NHCH2COCys-[S—S—(CH2)17CH3]—NH (CH2)17CH3 [compound (II)]
expression of the transgene compared with reference cationic lipid REF (HepG2 cells [1]; [6]): up to 3 fold | improvement of transfection compared with reference cationic lipid REF (HepG2 cells [1]; HepG2 cells, presence of serum proteins): up to 40 fold | inhibition of transfection due to the presence of serum proteins (in words) (HepG2 cells [1]; HepG2 cells): no inhibitory effect | toxicity (in words) (HepG2 cells [4]): no significant toxicity

Triton X-100
solubilization of the liposomes [5]: 100%

Reference: US6521252B1, “Transfecting compounds which are sensitive to reducing conditions, pharmaceutical compositions containing them and their applications” (Aventis Pharma S.A., priority 1998, dated 2003)
